Drawing on PubChem BioAssay (NCI), this text covers TGI for twelve compounds.

Common to all, as to experiment: NCI anticancer screen, dose series, 48 h
In test [1] the test system is CAKI-1 renal.
For test [2], the system named is EKVX NSCLC.
The test system of test [3] is HCC-2998 colon.
Test [4] relates to HCT-15 colon.
The test system of test [5] is HOP-92 NSCLC.
For test [6], the system named is HS 578T breast.
In test [7] the test system is HT29 colon.
The subject of test [8] is M14 melanoma.
In test [9] the test system is NCI-H226 lung.
Test [10] has as its system NCI-H23 lung.
For test [11], the system named is NCI/ADR-RES ovarian.
Test [12] concerns OVCAR-3 ovarian.
The subject of test [13] is OVCAR-4 ovarian.
Test [14] relates to SF-268 CNS.
Test [15] relates to SF-539 CNS.
For test [16], the system named is SK-MEL-28 melanoma.
The test system of test [17] is SW-620 colon.
Test [18] concerns UACC-62 melanoma.
Test [19] deals with MALME-3M melanoma.
The subject of test [20] is SK-OV-3 ovarian.

The structures appear in SMILES notation.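 All cell lines were grown in 96-well plates and treated with compound for 48 hours. Definition used: TGI = concentration required for complete inhibition of growth.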 Bounds are passed on as bounds.

Take `CCCCCCCCCCCCCCCCC(=O)NCC(=O)NCC(=O)NC(Cc1ccccc1)C(=O)Oc1ccc([N+](=O)[O-])cc1` (configuration not stated): the TGI was 32.2 µM in [1]; over 100 µM in [2]; 37.3 µM in test [3]; 34.5 µM in [4]; over 100 µM in [5]; over 100 µM in test [6]. Besides, the TGI in test [7] was 88 µM; in test [8] it was 41.1 µM; in test [9], 70 µM; in test [10] it was over 100 µM; in test [11] it was 42.9 µM; in test [12] it was over 100 µM. Also, the TGI in test [13] was over 100 µM; in test [14] it was 50.4 µM; in test [15], 46.8 µM; in test [16] it was 30.3 µM; in test [17], 37.2 µM; in test [18], 40.5 µM.
As to `CSC1=C(C(=O)N(COCC[Si](C)(C)C)c2ccccc2Br)CCC(C(C)(C)C)C1` (configuration not stated), the TGI was determined as 18.1 µM in [1]; 37.8 µM in test [2]; 27 µM in [3]; 26.1 µM in [4]; 45.8 µM in [5]; 64.4 µM in [7]. Besides, the TGI in test [8] is 76.3 µM; in test [19], 46.4 µM; in [9] it was 34.4 µM; in test [10], over 100 µM; in [11] it was over 100 µM; in [12], 24.4 µM. The TGI is over 100 µM in [13]; over 100 µM in test [16]; over 100 µM in test [20]; 41 µM in test [17]; 39.9 µM in test [18].
For the compound `O=S(Nc1ccccc1)c1ccccc1Oc1ccccc1` (configuration not stated), the TGI was over 100 µM in test [1]; 79.1 µM in [2]; 87.1 µM in test [3]; over 100 µM in [4]; 19.6 µM in test [6]; over 100 µM in [7]. Besides, the TGI in test [8], in [19], in test [9], in test [10], in test [11] and in [12] was over 100 µM in each case. In addition, the TGI in [14] was 62 µM; in test [15] it was 35.6 µM; in test [16], over 100 µM; in test [17] it was over 100 µM.
Consider `O=c1oc2cc(O)ccc2c(O)c1C(c1ccc2ccccc2c1)c1c(O)c2ccc(O)cc2oc1=O`, for which the TGI in test [1] is over 100 µM; in [2], over 100 µM; in [3], over 100 µM; in test [4] it was over 100 µM; in [5] it was over 100 µM; in test [6] it was 59.7 µM. Moreover, the TGI in test [7], in [8], in test [9], in test [10], in test [11] and in test [12] was over 100 µM each time. Moreover, the TGI in test [14] was 33.5 µM; in test [15], over 100 µM; in test [16] it was over 100 µM; in test [20] it was over 100 µM; in test [17], over 100 µM; in test [18], over 100 µM.
Regarding `CCOC(=O)c1ccc(OCc2nc3cc(C(F)(F)F)ccc3nc2-c2ccccc2)cc1`, the TGI in test [1], in test [2], in [3], in [4], in test [5] and in test [6] was over 100 µM throughout. In addition, the TGI in test [7], in [8], in test [9], in test [10], in test [11] and in test [12] was over 100 µM throughout. The TGI in test [13], in test [14], in [15], in [16], in test [17] and in [18] was over 100 µM in each case.
As to `S=C(Nc1ccc(Cl)cc1)c1ccc(CN2CCCCC2)s1`, the TGI in [1] is 52.1 µM; in [2], 35.1 µM; in [3] it was 21.6 µM; in test [4], over 100 µM; in test [6], over 100 µM; in test [7], 19.5 µM. Further, the TGI was 26.7 µM in [8]; 8.63 µM in test [10]; over 100 µM in test [11]; over 100 µM in test [12]; 80.7 µM in test [13]; over 100 µM in test [14]. In addition, the TGI was over 100 µM in [15], 37.2 µM in [16], over 100 µM in test [17] and 21.7 µM in test [18].
Take `CC[C@]1(Cc2ccc(OC)c(OC)c2)C=[N+]([O-])O[C@H](OC2CCCCC2c2ccccc2)[C@@H]1OC(C)=O` (some centres not stated): the TGI in [1] was 56.8 µM; in [2], over 100 µM; in test [3], over 100 µM; in test [4], over 100 µM; in [5], over 100 µM; in test [7], over 100 µM. The TGI in test [8], in test [19], in test [9], in [10], in [11] and in [12] was over 100 µM in each case. The TGI in [13], in test [16], in test [20], in test [17] and in test [18] was over 100 µM in each case.
In the case of `O=P1(N(CCCl)CCCl)Oc2c(Cl)cc(Cl)c(Cl)c2Cc2c(Cl)c(Cl)cc(Cl)c2O1`, the TGI was over 100 µM in [1]; over 100 µM in test [2]; over 100 µM in test [3]; over 100 µM in [4]; 66.5 µM in test [5]; over 100 µM in test [6]. The TGI in test [7], in test [8], in test [9], in test [10], in test [11] and in [12] was over 100 µM throughout. Further, the TGI in test [13], in test [14], in test [15], in [16], in test [20] and in [17] was over 100 µM each time. For the same compound, the TGI in test [18] is over 100 µM.
In the case of `Cc1cccc(C)c1NC(=O)C(=O)C(c1ccccc1Cl)S(=O)(=O)Cc1ccccc1Cl` (configuration not stated), the TGI in [1] was over 100 µM; in test [2], over 100 µM; in test [3] it was over 100 µM; in test [4], over 100 µM; in test [5], 44 µM; in test [6], over 100 µM. For the same compound, the TGI was over 100 µM in test [7]; over 100 µM in [8]; over 100 µM in test [9]; over 76.9 µM in test [10]; over 100 µM in [11]; over 100 µM in test [12]. Also, the TGI in test [13] is over 100 µM; in test [14], 66.6 µM; in test [15], 39.2 µM; in [16], over 100 µM; in [20], over 61 µM; in [17], over 100 µM. Besides, the TGI in test [18] is over 100 µM.
`CC(=O)Oc1c(C)cc2c(c1C)C(C)(C)CN2C(=O)C(C)(C)C`: the TGI in test [2] is over 100 µM; in test [3], over 100 µM; in [4] it was over 100 µM; in [5], 74.4 µM; in [6], over 100 µM; in [7] it was over 100 µM. Besides, the TGI in test [8], in [9], in test [10], in [11], in test [12] and in test [13] was over 100 µM in each case. In addition, the TGI in test [14], in [15], in test [16], in test [20], in test [17] and in test [18] was over 100 µM each time.
`CCOP(=O)(OCC)c1cc2cc(O)ccc2oc1=O`: the TGI in test [1], in test [2], in test [3], in [4], in test [5] and in test [6] was over 100 µM in each case. Further, the TGI in [7], in [8], in test [9], in [10], in test [11] and in [12] was over 100 µM in each case. Also, the TGI in test [13], in test [14], in [15], in test [16], in test [20] and in test [17] was over 100 µM each time. In addition, in test [18], the TGI was over 100 µM.
As to `Cc1cc2nn(C3CCCCO3)nc2cc1C` (configuration not stated), the TGI in test [1], in [2], in [3], in [4], in test [6] and in test [7] was over 100 µM throughout. Besides, the TGI in test [8], in test [19], in [9], in [10], in test [11] and in [12] was over 100 µM in each case. Moreover, the TGI in test [13], in test [14], in test [15], in test [20] and in [18] was over 100 µM throughout.
